Data: patent US11014934B2, “Antiseptic drug” (AO “TATKHIMFARMPREPARATY”, priority 2017, dated 2021)

How the values were obtained:
[1] = tested on: Bovine rhinotracheitis virus (herpes virus family), vaccine strain TK-A (VIEV)-V2; experiment: Antiviral (virulicidal) activity, cytopathogenic effect on LCE cells; type: cell-based, IBR virus; details: for destruction of the monolayer, drug with the virus: virus incubated with drug one hour, LCE cells 72 hours; for concentration with virulicidal effect: herpes virus type 1, infectious titer 6.0 Ig TCD50/ml
Experimental: The study of the antiviral activity of compound I in vitro was carried out in accordance with [D. L. Kuznetsov, A. YA. Samuylenko, V. I. Belousov Immunofermentnaya diagnostika IRT KRS. Veterinariya.—2002.—No 3.—S. 22-25. D. L. Kuznetsov, A. Y. ? Samuylenko, V. I. Belousov Enzyme-linked immunosorbent assay for cattle IBR. Veterinary medicine.—2002.—No 3.—P. 22-25].
Cells of a light cow embryo (LCE) are obtained from the Federal State Budgetary Institution “All-Russian Institute of Experimental Veterinary Medicine”, Moscow. Bovine rhinotracheitis virus (herpes virus family), vaccine strain “TK-A (VIEV)-V2” was obtained from the Federal State Budgetary Institution “All-Russian Institute of Experimental Veterinary Medicine”, Moscow.
Evaluation of the antiviral activity of compound I was carried out in an appropriate medium on LCE cells that were infected with the IBR virus belonging to the type 1 herpes virus family.
The virus was incubated in the presence of compound I in a culture medium at 37° C. for one hour at various concentrations; miramistin and benzalkonium chloride served as control preparations. After incubation of the virus with substances, it was added to the cell culture, which was then incubated at 37° C., 5% CO2 for 72 hours.
Evaluation of the cytopathogenic effect was carried out visually by the state of the cell monolayer as compared with the controls (virus without incubation with the drug, the studied drug concentrations without the virus). The virus titer was calculated using the method of Reed-Muench in the modification of Ashmarin and expressed in Ig TCD50/ml.

[2] = tested on: Escherichia coli CDC F-50; experiment: Disinfectant activity in suspension test; type: cell-based
Experimental: (§1) To prepare a bacterial suspension of the culture, microorganisms grown in dense nutrient medium for (18-24) hours were washed off with a sterile isotonic sodium chloride solution. The bacterial suspension of each microorganism was brought to a turbidity corresponding to a concentration of 1×10^9 cells/ml, which corresponds to 3 units of McFarland. For experiments with protein loading, a solution of bovine serum albumin (BSA) was added to the bacterial suspension to a final concentration of 0.2%.
(§2) Solutions of compound I, miramistin, and benzalkonium chloride were poured at a working concentration (0.1%, 0.2%) into a 24-well plate of 0.9 ml per well: 0.1 ml of microbial suspension was added to wells with disinfectant solutions and mixed by shaking for several seconds.
(§3) At the end of 1, 5, and 15 minutes of exposure, 0.5 ml of a universal neutralizer was added and mixed by shaking to deactivate the drugs and stop their antimicrobial activity. The neutralizer consisted of tween-80 (Sigma-Aldrich)—3.0 ml, saponin (DIAEM)—3.0 g, histidine—0.1 g, cysteine—0.1 g in 100 ml of phosphate-buffered solution.
(§4) The liquid was inoculated on a dense nutrient medium (Müller-Hinton agar) in 0.1 ml of the mixture, cultivation was carried out (24-48) hours at 37° C. Müller-Hinton broth was prepared from dry media (Mueller Hinton broth, Acumedia, Baltimore), cultivation was carried out on agarized Müller-Hinton broth, which included an additional 2% of agar. The media were autoclaved at 121° C. for 15 minutes.
(§5) After the time required for the cultivation of microorganisms, the results were counted according to the number of colonies grown on the Petri dish. In the absence of growth, the time for culturing microorganisms was increased by a factor of 2 (for example, when the cultivation time was 24 hours, it was left in the thermostat for up to 2 days). The experiment was carried out three times under the same conditions.
(§6) The criterion of efficacy of drugs in suspension is the death of 100% test microorganisms, with a duration of action not more than 30 minutes.

[3] = tested on: Staphylococcus aureus ATCC 209p; experiment: Disinfectant activity in suspension test; type: cell-based
Experimental: as §1, §2, §3, §4, §5, §6

[4] = 0.1% solution, exposure 1 min, +BSA
[5] = 0.1% solution, exposure 1 min, −BSA
[6] = 0.1% solution, exposure 5 min, +BSA
[7] = 0.1% solution, exposure 5 min, −BSA
[8] = 0.1% solution, exposure 15 min, +BSA
[9] = 0.1% solution, exposure 15 min, −BSA
[10] = 0.2% solution, exposure 1 min, +BSA
[11] = 0.2% solution, exposure 1 min, −BSA
[12] = 0.2% solution, exposure 5 min, +BSA
[13] = 0.2% solution, exposure 5 min, −BSA
[14] = 0.2% solution, exposure 15 min, +BSA
[15] = 0.2% solution, exposure 15 min, −BSA

Row | Compound | destruction of the monolayer, drug with the virus ([1]; 150 μg/ml) | destruction of the monolayer, drug with the virus ([1]; 200 μg/ml) | Inhibition rate (M ± SD) of Escherichia coli CDC F-50 growth [2, 4] | Inhibition rate (M ± SD) of Escherichia coli CDC F-50 growth [2, 5] | Inhibition rate (M ± SD) of Escherichia coli CDC F-50 growth [2, 6] | Inhibition rate (M ± SD) of Escherichia coli CDC F-50 growth [2, 7] | Inhibition rate (M ± SD) of Escherichia coli CDC F-50 growth [2, 8] | Inhibition rate (M ± SD) of Escherichia coli CDC F-50 growth [2, 9] | Inhibition rate (M ± SD) of Escherichia coli CDC F-50 growth [2, 10] | Inhibition rate (M ± SD) of Escherichia coli CDC F-50 growth [2, 11] | Inhibition rate (M ± SD) of Escherichia coli CDC F-50 growth [2, 12] | Inhibition rate (M ± SD) of Escherichia coli CDC F-50 growth [2, 13] | Inhibition rate (M ± SD) of Escherichia coli CDC F-50 growth [2, 14] | Inhibition rate (M ± SD) of Escherichia coli CDC F-50 growth [2, 15] | Inhibition rate (M ± SD) Staphylococcus aureus ATCC 209p [3, 4] | Inhibition rate (M ± SD) Staphylococcus aureus ATCC 209p [3, 5] | Inhibition rate (M ± SD) Staphylococcus aureus ATCC 209p [3, 6] | Inhibition rate (M ± SD) Staphylococcus aureus ATCC 209p [3, 7] | Inhibition rate (M ± SD) Staphylococcus aureus ATCC 209p [3, 8] | Inhibition rate (M ± SD) Staphylococcus aureus ATCC 209p [3, 9] | other results
1 | CCCCCCCCCCCC[N+](C)(C)Cc1cnc(C[N+](C)(C)CCCCCCCCCCCC)c2c1COC(CC)O2 (centres unmarked) [Compound I, 5,8-(Bis(methylene (N, N-dimethyl-N-dodecylammonium))-2-ethyl-4H-[1,3]dioxino [4,5-c]pyridiniumdichloride] | ++ (++ - −40-70% destruction of the monolayer) | − (−0-10% destruction of the monolayer) | 99.99 ± 0.005% | 99.99% | 99.99 ± 0.005% | 99.99 ± 0.005% | 100% | 100% | 99.99 ± 0.005% | 99.99% | 99.99% | 99.99% | 100% | 100% | 99.99% | 99.99% | 99.99% | 99.99% | 99.99 ± 0.005% | 99.99 ± 0.005% | concentration with virulicidal effect [1]: 200 µg/mL; death of Staphylococcus aureus ATCC 209p ([3]; 0.1% solution): 99.99%; Inhibition rate (M ± SD) Staphylococcus aureus ATCC 209p [3, 10]: 99.99 ± 0.005%; Inhibition rate (M ± SD) Staphylococcus aureus ATCC 209p [3, 11]: 100%; Inhibition rate (M ± SD) Staphylococcus aureus ATCC 209p [3, 12]: 99.99 ± 0.005%; Inhibition rate (M ± SD) Staphylococcus aureus ATCC 209p [3, 13]: 100%; Inhibition rate (M ± SD) Staphylococcus aureus ATCC 209p [3, 14]: 100%; Inhibition rate (M ± SD) Staphylococcus aureus ATCC 209p [3, 15]: 100%
2 | alkyldimethyl(phenylmethyl) ammonium chloride [Benzalconium chloride] | ++ (++ - −40-70% destruction of the monolayer) | − (−0-10% destruction of the monolayer) | 99.99 ± 0.005% | 99.99% | 99.99 ± 0.005% | 99.99 ± 0.005% | 100% | 100% | 99.99 ± 0.005% | 99.99 ± 0.005% | 100% | 99.99 ± 0.005% | 100% | 100% | 99.99% | 99.99% | 99.99% | 99.99% | 99.99 ± 0.005% | 99.99 ± 0.005% | Inhibition rate (M ± SD) Staphylococcus aureus ATCC 209p [3, 10]: 100%; Inhibition rate (M ± SD) Staphylococcus aureus ATCC 209p [3, 11]: 100%; Inhibition rate (M ± SD) Staphylococcus aureus ATCC 209p [3, 12]: 100%; Inhibition rate (M ± SD) Staphylococcus aureus ATCC 209p [3, 13]: 100%; Inhibition rate (M ± SD) Staphylococcus aureus ATCC 209p [3, 14]: 100%; Inhibition rate (M ± SD) Staphylococcus aureus ATCC 209p [3, 15]: 100%
3 | CCCCCCCCCCCCCC(=O)NCCC[N+](C)(C)Cc1ccccc1.O.[Cl-] [Miramistin, benzyldimethyl [3-(myristoylamino)propyl]-ammonium chloride monohydrate] | − (−0-10% destruction of the monolayer) | − (−0-10% destruction of the monolayer) | 99.98 ± 0.005% | 99.99% | 99.99% | 99.99 ± 0.005% | 99.99 ± 0.005% | 100% | 99.99% | 99.99% | 99.99% | 99.99 ± 0.005% | 100% | 100% | 99.99% | 99.9% | 99.99% | 99.99% | 99.99 ± 0.005% | 99.99% | destruction of the monolayer, drug with the virus ([1]; 100 μg/ml): +++ (+++ - 90-100% destruction of the monolayer); concentration with virulicidal effect [1]: 150 µg/mL; Inhibition rate (M ± SD) Staphylococcus aureus ATCC 209p [3, 10]: 99.99%; Inhibition rate (M ± SD) Staphylococcus aureus ATCC 209p [3, 11]: 99.9%; Inhibition rate (M ± SD) Staphylococcus aureus ATCC 209p [3, 12]: 99.99 ± 0.005%; Inhibition rate (M ± SD) Staphylococcus aureus ATCC 209p [3, 13]: 99.99%; Inhibition rate (M ± SD) Staphylococcus aureus ATCC 209p ([3]; 0.2% solution, exposure 15 min, +BSA, listed as miramistin, monohydrate): < 100%; Inhibition rate (M ± SD) Staphylococcus aureus ATCC 209p ([3]; 0.2% solution, exposure 15 min, +BSA, monohydrate): 99.99 ± 0.005%; Inhibition rate (M ± SD) Staphylococcus aureus ATCC 209p [3, 15]: 100%
